Columns and labels:
human orexin 2 receptor = target: T1, human orexin 2 receptor (Homo sapiens, UniProt O43614); assay: Calcium accumulation in cells (FLIPR), antagonism of orexin A, human orexin 2 receptor; format: cell-based; conditions: for Ki: calcium accumulation, antagonism of orexin A, Cheng-Prusoff corrected, read-out: FLIPR hOx2R Ki
T1 construct: expressed in transfected cells
T1 sequence (O43614 1-444): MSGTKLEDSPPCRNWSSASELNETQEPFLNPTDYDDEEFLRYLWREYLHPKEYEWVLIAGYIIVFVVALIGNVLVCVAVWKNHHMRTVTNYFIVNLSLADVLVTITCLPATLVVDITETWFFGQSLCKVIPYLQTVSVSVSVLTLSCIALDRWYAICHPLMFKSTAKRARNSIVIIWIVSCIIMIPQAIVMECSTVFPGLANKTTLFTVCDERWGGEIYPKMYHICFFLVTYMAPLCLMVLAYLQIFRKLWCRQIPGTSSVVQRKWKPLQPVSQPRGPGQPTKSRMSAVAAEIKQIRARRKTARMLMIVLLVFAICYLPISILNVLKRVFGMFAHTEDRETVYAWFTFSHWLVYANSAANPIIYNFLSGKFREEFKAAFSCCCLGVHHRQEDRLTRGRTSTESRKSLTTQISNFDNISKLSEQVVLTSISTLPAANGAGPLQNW

human orexin 1 receptor = target: T2, human orexin 1 receptor (Homo sapiens, UniProt O43613); assay: Calcium accumulation in cells (FLIPR), antagonism of orexin A, human orexin 1 receptor; format: cell-based; conditions: for Ki: calcium accumulation, antagonism of orexin A, Cheng-Prusoff corrected, read-out: FLIPR hOx1R Ki; for inhibition at 10 µM: measured at a concentration of 10 μM of compound, read-out: FLIPR hOx1R % inhibition
T2 construct: expressed in transfected cells
T2 sequence (O43613 1-425): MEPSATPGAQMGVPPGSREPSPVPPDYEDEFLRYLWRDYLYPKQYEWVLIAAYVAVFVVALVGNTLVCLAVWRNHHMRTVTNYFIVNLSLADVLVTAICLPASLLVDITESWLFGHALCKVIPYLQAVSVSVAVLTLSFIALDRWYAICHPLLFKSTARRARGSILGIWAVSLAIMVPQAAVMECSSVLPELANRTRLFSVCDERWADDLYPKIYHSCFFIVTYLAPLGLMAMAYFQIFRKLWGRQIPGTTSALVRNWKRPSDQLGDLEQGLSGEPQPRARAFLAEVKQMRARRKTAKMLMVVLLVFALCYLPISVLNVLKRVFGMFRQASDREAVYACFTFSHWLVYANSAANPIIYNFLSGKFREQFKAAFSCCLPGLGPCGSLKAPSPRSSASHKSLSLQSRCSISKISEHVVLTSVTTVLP

## O=C1N(Cc2c[nH]c3ccccc23)CCC12CCN(c1nc3ccccc3[nH]1)CC2 [Example 3.12, 8-(1H-Benzoimidazol-2-yl)-2-(1H-indol-3-ylmethyl)-2,8-diaza-spiro[4.5]decan-1-one]
Human orexin 2 receptor
  Ki: 376 nM
Human orexin 1 receptor
  Ki: 4970 nM

## O=C1N(Cc2c[nH]c3ccccc23)CCC12CCN(c1nc3ccccc3o1)CC2 [Example 3.13, 8-Benzooxazol-2-yl-2-(1H-indol-3-ylmethyl)-2,8-diaza-spiro[4.5]decan-1-one]
Human orexin 2 receptor
  Ki: 342 nM
Human orexin 1 receptor
  Ki: 342 nM

## COc1ccnc(N2CCC3(CCN(Cc4c[nH]c5ccccc45)C3=O)CC2)n1 [Example 3.14, 2-(1H-Indol-3-ylmethyl)-8-(4-methoxy-pyrimidin-2-yl)-2,8-diaza-spiro[4.5]decan-1-one]
Human orexin 2 receptor
  Ki: 134 nM
Human orexin 1 receptor
  Ki: 2770 nM

## COc1ccnc(N2CCC3(CCN(Cc4c[nH]c5ncccc45)C3=O)CC2)n1 [Example 3.15, 8-(4-Methoxy-pyrimidin-2-yl)-2-(1H-pyrrolo[2,3-b]pyridin-3-ylmethyl)-2,8-diaza-spiro[4.5]decan-1-one]
Human orexin 2 receptor
  Ki: 637 nM
Human orexin 1 receptor
  inhibition at 10 µM: 26%

## COc1ccnc(N2CCC3(CCN(Cc4n[nH]c5ccccc45)C3=O)CC2)n1 [Example 3.16, 2-(1H-Indazol-3-ylmethyl)-8-(4-methoxy-pyrimidin-2-yl)-2,8-diaza-spiro[4.5]decan-1-one]
Human orexin 2 receptor
  Ki: 673 nM
Human orexin 1 receptor
  inhibition at 10 µM: 39%

## COc1ccnc(N2CCC3(CCN(Cc4ccccc4-c4nc(C)no4)C3=O)CC2)n1 [Example 3.17, 8-(4-Methoxy-pyrimidin-2-yl)-2-[2-(3-methyl-[1,2,4]oxadiazol-5-yl)-benzyl]-2,8-diaza-spiro[4.5]decan-1-one]
Human orexin 2 receptor
  Ki: 298 nM
Human orexin 1 receptor
  inhibition at 10 µM: 37%

## Cc1cc(C)nc(N2CCC3(CCN(Cc4ccccc4-c4nc(C)no4)C3=O)CC2)n1 [Example 3.19, 8-(4,6-Dimethyl-pyrimidin-2-yl)-2-[2-(3-methyl-[1,2,4]oxadiazol-5-yl)-benzyl]-2,8-diaza-spiro[4.5]decan-1-one]
Human orexin 2 receptor
  Ki: 127 nM
Human orexin 1 receptor
  inhibition at 10 µM: 22%

## COc1cc(C)nc(N2CCC3(CCN(Cc4c[nH]c5ncccc45)C3=O)CC2)n1 [Example 3.22, 2-((1H-pyrrolo[2,3-b]pyridin-3-yl)methyl)-8-(4-methoxy-6-methylpyrimidin-2-yl)-2,8-diazaspiro[4.5]decan-1-one]
Human orexin 2 receptor
  Ki: 246 nM
Human orexin 1 receptor
  inhibition at 10 µM: 24%

## Cc1cc(C)nc(N2CCC3(CCN(Cc4ccc5[nH]ccc5c4)C3=O)CC2)n1 [Example 3.23, 2-((1H-indol-5-yl)methyl)-8-(4,6-dimethylpyrimidin-2-yl)-2,8-diazaspiro[4.5]decan-1-one]
Human orexin 2 receptor
  Ki: 2390 nM
Human orexin 1 receptor
  inhibition at 10 µM: 10%

## Cc1cc(C)nc(N2CCC3(CCN(Cc4nn(C)nc4-c4ccccc4)C3=O)CC2)n1 [Example 3.24, 8-(4,6-dimethylpyrimidin-2-yl)-2-((2-methyl-5-phenyl-2H-1,2,3-triazol-4-yl)methyl)-2,8-diazaspiro[4.5]decan-1-one]
Human orexin 2 receptor
  Ki: 117 nM
Human orexin 1 receptor
  inhibition at 10 µM: 25%

## Cc1cc(C)nc(N2CCC3(CC2)NCN(Cc2c[nH]c4ccccc24)C3=O)n1 [Example 4.1, 3-((1H-indol-3-yl)methyl)-8-(4,6-dimethylpyrimidin-2-yl)-1,3,8-triazaspiro[4.5]decan-4-one]
Human orexin 2 receptor
  Ki: 2120 nM
Human orexin 1 receptor
  inhibition at 10 µM: 12%

## COc1ccnc(N2CCC3(CCN(Cc4c[nH]c5ccccc45)C3=O)C2)n1 (centres unmarked) [Example 5.1, 2-((1H-indol-3-yl)methyl)-7-(4-methoxypyrimidin-2-yl)-2,7-diazaspiro[4.4]nonan-1-one]
Human orexin 2 receptor
  Ki: 132 nM
Human orexin 1 receptor
  Ki: 2140 nM

## COc1ccnc(N2CC[C@@]3(CCN(Cc4c[nH]c5ccccc45)C3=O)C2)n1 [Example 5.2, (R)-2-((1H-indol-3-yl)methyl)-7-(4-methoxypyrimidin-2-yl)-2,7-diazaspiro[4.4]nonan-1-one]
Human orexin 2 receptor
  Ki: 1260 nM
Human orexin 1 receptor
  inhibition at 10 µM: 49%

## COc1ccnc(N2CC[C@]3(CCN(Cc4c[nH]c5ccccc45)C3=O)C2)n1 [Example 5.3, (S)-2-((1H-indol-3-yl)methyl)-7-(4-methoxypyrimidin-2-yl)-2,7-diazaspiro[4.4]nonan-1-one]
Human orexin 2 receptor
  Ki: 103 nM
Human orexin 1 receptor
  Ki: 2640 nM

## COc1cc(C)nc(N2CCC3(CCN(Cc4c[nH]c5ccccc45)C3=O)C2)n1 (centres unmarked) [Example 5.4, 2-((1H-indol-3-yl)methyl)-7-(4-methoxy-6-methylpyrimidin-2-yl)-2,7-diazaspiro[4.4]nonan-1-one]
Human orexin 2 receptor
  Ki: 119 nM
Human orexin 1 receptor
  Ki: 1050 nM

## O=C1N(Cc2c[nH]c3ccccc23)CCC12CCN(c1cnc3ccccc3n1)C2 (centres unmarked) [Example 5.5, 2-((1H-Indol-3-yl)methyl)-7-(quinoxalin-2-yl)-2,7-diazaspiro[4.4]nonan-1-one]
Human orexin 2 receptor
  Ki: 430 nM
Human orexin 1 receptor
  Ki: 1230 nM

## Cc1ccnc(N2CCC3(CCN(Cc4c[nH]c5ccccc45)C3=O)C2)n1 (centres unmarked) [Example 5.6, 2-((1H-Indol-3-yl)methyl)-7-(4-methylpyrimidin-2-yl)-2,7-diazaspiro[4.4]nonan-1-one]
Human orexin 2 receptor
  Ki: 393 nM
Human orexin 1 receptor
  inhibition at 10 µM: 33%

## Cc1cc(C)nc(N2CCC3(CCN(Cc4c[nH]c5ccccc45)C3=O)C2)n1 (centres unmarked) [Example 5.7, 2-((1H-Indol-3-yl)methyl)-7-(4,6-dimethylpyrimidin-2-yl)-2,7-diazaspiro[4.4]nonan-1-one]
Human orexin 2 receptor
  Ki: 249 nM
Human orexin 1 receptor
  Ki: 2130 nM

## O=C1N(Cc2c[nH]c3ccccc23)CCC12CCN(c1nc3ccccc3o1)C2 (centres unmarked) [Example 5.8, 2-((1H-Indol-3-yl)methyl)-7-(benzo[d]oxazol-2-yl)-2,7-diazaspiro[4.4]nonan-1-one]
Human orexin 2 receptor
  Ki: 304 nM
Human orexin 1 receptor
  Ki: 739 nM

## Cc1cc(C)nc(N2CCC3(CCN(Cc4cccc5[nH]ccc45)C3=O)C2)n1 (centres unmarked) [Example 5.9, 2-((1H-Indol-4-yl)methyl)-7-(4,6-dimethylpyrimidin-2-yl)-2,7-diazaspiro[4.4]nonan-1-one]
Human orexin 2 receptor
  Ki: 1290 nM
Human orexin 1 receptor
  inhibition at 10 µM: < 10%

## COc1cc(C)nc(N2CCC3(CCN(Cc4cccc5[nH]ccc45)C3=O)C2)n1 (centres unmarked) [Example 5.10, 2-((1H-Indol-4-yl)methyl)-7-(4-methoxy-6-methylpyrimidin-2-yl)-2,7-diazaspiro[4.4]nonan-1-one]
Human orexin 2 receptor
  Ki: 629 nM
Human orexin 1 receptor
  Ki: 1340 nM

## COc1ccnc(N2CCC3(CCN(Cc4c[nH]c5ncccc45)C3=O)C2)n1 (centres unmarked) [Example 5.11, 2-((1H-Pyrrolo[2,3-b]pyridin-3-yl)methyl)-7-(4-methoxypyrimidin-2-yl)-2,7-diazaspiro[4.4]nonan-1-one]
Human orexin 2 receptor; measured at a concentration of 10 μM of compound, read-out: FLIPR hOx2R % inhibition
  inhibition at 10 µM: 26%
Human orexin 1 receptor
  inhibition at 10 µM: < 10%

## COc1ccnc(N2CCC3(CCN(Cc4n[nH]c5ccccc45)C3=O)C2)n1 (centres unmarked) [Example 5.12, 2-((1H-Indazol-3-yl)methyl)-7-(4-methoxypyrimidin-2-yl)-2,7-diazaspiro[4.4]nonan-1-one]
Human orexin 2 receptor
  Ki: 711 nM
Human orexin 1 receptor
  inhibition at 10 µM: 40%

## COc1ccnc(N2CCC3(CCN(Cc4ccccc4-c4nc(C)no4)C3=O)C2)n1 (centres unmarked) [Example 5.13, 7-(4-Methoxypyrimidin-2-yl)-2-(2-(3-methyl-1,2,4-oxadiazol-5-yl)benzyl)-2,7-diazaspiro[4.4]nonan-1-one]
Human orexin 2 receptor
  Ki: 673 nM
Human orexin 1 receptor
  Ki: 4160 nM

## COc1cccc(-c2n[nH]nc2CN2CCC3(CCN(c4nccc(OC)n4)C3)C2=O)c1 (centres unmarked) [Example 5.14, 2-((5-(3-Methoxyphenyl)-2H-1,2,3-triazol-4-yl)methyl)-7-(4-methoxypyrimidin-2-yl)-2,7-diazaspiro[4.4]nonan-1-one]
Human orexin 2 receptor
  Ki: 146 nM
Human orexin 1 receptor
  Ki: 544 nM
